What all share (test): relative viability (nuclei count vs DMSO), 5 days (fraction); higher = more cells survive
Compound in assay [1]: C1CC1C(=O)NC2=NNC3=C2C=CC(=C3)C4=CC(=CC=C4)C(=O)NC5CC5 [XMD13-2] + CS(=O)(=O)CCNCc1ccc(-c2ccc3ncnc(Nc4ccc(OCc5cccc(F)c5)c(Cl)c4)c3c2)o1 [Lapatinib] (partner 2 µM)
An outline of the steps: (§1)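 Five library-drug doses in √10 steps were combined with a fixed anchor-drug dose, or a single drug was given alone, by pin tool to lung cancer cell lines in 1536-well plates the day after seeding. Nuclei were stained and counted after 5 days. Relative viability is the nuclei count in treated wells over that in vehicle wells, taken as the median of duplicate plates.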

Compound in assay [2]: C1CC1C(=O)NC2=NNC3=C2C=CC(=C3)C4=CC(=CC=C4)C(=O)NC5CC5 [XMD13-2] + O=C(c1cc(Cc2n[nH]c(=O)c3ccccc23)ccc1F)N1CCN(C(=O)C2CC2)CC1 [Olaparib] (partner 8 µM)
An outline of the steps:
as §1

Compound in assay [3]: C1CC1C(=O)NC2=NNC3=C2C=CC(=C3)C4=CC(=CC=C4)C(=O)NC5CC5 [XMD13-2] + C[C@]1(O)C[C@@H](c2nc(-c3ccc4ccc(-c5ccccc5)nc4c3)c3c(N)nccn32)C1 [Linsitinib] (partner 1 µM)
The procedure, abridged: as §1

Compound in assay [4]: C1CC1C(=O)NC2=NNC3=C2C=CC(=C3)C4=CC(=CC=C4)C(=O)NC5CC5 [XMD13-2] + Nc1ncn([C@H]2C[C@H](O)[C@@H](CO)O2)c(=O)n1 [Decitabine] (partner 2 µM)
The procedure, abridged:
as §1

This passage reports relative viability results from the supplement of paper PMC10307832.

On to NCI-H1993, for which the relative viability in assay [1] (first compound 0.05 µM) was determined as 0.904; in assay [1] (first compound 0.1581 µM) it was 0.87; in assay [1] (first compound 0.5 µM), 0.931; in assay [1] (first compound 1.581 µM), 0.765; in assay [1] (first compound 5 µM) it was 0.706; in assay [2] (first compound 0.05 µM), 1.1. The relative viability turned out to be 0.924 in assay [2] (first compound 0.1581 µM); 0.507 in assay [2] (first compound 0.5 µM); 0.813 in assay [2] (first compound 1.581 µM); 0.952 in assay [2] (first compound 5 µM); 0.807 in assay [3] (first compound 0.05 µM); 0.78 in assay [3] (first compound 0.1581 µM). Besides, the relative viability came out at 0.731 in assay [3] (first compound 0.5 µM); 0.743 in assay [3] (first compound 1.581 µM); 0.694 in assay [3] (first compound 5 µM); 0.625 in assay [4] (first compound 0.05 µM); 0.552 in assay [4] (first compound 0.1581 µM); 0.663 in assay [4] (first compound 0.5 µM). The relative viability in assay [4] (first compound 1.581 µM) stood at 0.632; in assay [4] (first compound 5 µM), 0.669.

Take NCI-H2009: the relative viability in assay [1] (first compound 0.05 µM) was 0.914; in assay [1] (first compound 0.1581 µM) it was 1.03; in assay [1] (first compound 0.5 µM), 1.16; in assay [1] (first compound 1.581 µM) it was 0.894; in assay [1] (first compound 5 µM) it was 0.519; in assay [2] (first compound 0.05 µM), 0.663. The relative viability in assay [2] (first compound 0.1581 µM) was 0.685; in assay [2] (first compound 0.5 µM), 0.727; in assay [2] (first compound 1.581 µM), 0.673; in assay [2] (first compound 5 µM), 0.745; in assay [3] (first compound 0.05 µM), 1.19; in assay [3] (first compound 0.1581 µM) it was 1.19. Further, the relative viability in assay [3] (first compound 0.5 µM) was determined as 1.13; in assay [3] (first compound 1.581 µM), 1.2; in assay [3] (first compound 5 µM), 1.16; in assay [4] (first compound 0.05 µM), 0.372; in assay [4] (first compound 0.1581 µM), 0.394; in assay [4] (first compound 0.5 µM), 0.427. In addition, the relative viability in assay [4] (first compound 1.581 µM) amounted to 0.449; in assay [4] (first compound 5 µM), 0.387.

With NCI-H2023, the relative viability worked out at 0.932 in assay [1] (first compound 0.05 µM); 0.739 in assay [1] (first compound 0.1581 µM); 0.835 in assay [1] (first compound 0.5 µM); 0.724 in assay [1] (first compound 1.581 µM); 0.3 in assay [1] (first compound 5 µM); 0.567 in assay [2] (first compound 0.05 µM). Further, the relative viability in assay [2] (first compound 0.1581 µM) is 0.472; in assay [2] (first compound 0.5 µM) it was 0.504; in assay [2] (first compound 1.581 µM), 0.492; in assay [2] (first compound 5 µM), 0.507; in assay [3] (first compound 0.05 µM), 0.697; in assay [3] (first compound 0.1581 µM) it was 0.684. In addition, the relative viability in assay [3] (first compound 0.5 µM) is 0.572; in assay [3] (first compound 1.581 µM), 0.649; in assay [3] (first compound 5 µM), 0.854; in assay [4] (first compound 0.05 µM) it was 0.255; in assay [4] (first compound 0.1581 µM), 0.214; in assay [4] (first compound 0.5 µM), 0.215. For the same cell line, the figures for the relative viability in assay [4] (first compound 1.581 µM) and in assay [4] (first compound 5 µM) were 0.22 and 0.195, respectively.

Regarding NCI-H2085, the relative viability in assay [1] (first compound 0.05 µM) was 0.821; in assay [1] (first compound 0.1581 µM) it was 0.776; in assay [1] (first compound 0.5 µM), 0.87; in assay [1] (first compound 1.581 µM) it was 0.809; in assay [1] (first compound 5 µM), 0.699; in assay [2] (first compound 0.05 µM), 0.771. The relative viability turned out to be 0.695 in assay [2] (first compound 0.1581 µM); 0.805 in assay [2] (first compound 0.5 µM); 0.728 in assay [2] (first compound 1.581 µM); 0.768 in assay [2] (first compound 5 µM); 0.894 in assay [3] (first compound 0.05 µM); 0.819 in assay [3] (first compound 0.1581 µM). The relative viability was 0.873 in assay [3] (first compound 0.5 µM); 0.984 in assay [3] (first compound 1.581 µM); 0.963 in assay [3] (first compound 5 µM); 0.622 in assay [4] (first compound 0.05 µM); 0.525 in assay [4] (first compound 0.1581 µM); 0.593 in assay [4] (first compound 0.5 µM). Moreover, the relative viability in assay [4] (first compound 1.581 µM) was 0.51; in assay [4] (first compound 5 µM), 0.563.

For NCI-H2087, the relative viability was determined as 1.06 in assay [1] (first compound 0.05 µM); 1.48 in assay [1] (first compound 0.1581 µM); 1.01 in assay [1] (first compound 0.5 µM); 1.23 in assay [1] (first compound 1.581 µM); 0.737 in assay [1] (first compound 5 µM); 0.643 in assay [2] (first compound 0.05 µM). The relative viability in assay [2] (first compound 0.1581 µM) was determined as 0.607; in assay [2] (first compound 0.5 µM) it was 0.691; in assay [2] (first compound 1.581 µM) it was 0.562; in assay [2] (first compound 5 µM), 0.567; in assay [3] (first compound 0.05 µM), 0.922; in assay [3] (first compound 0.1581 µM) it was 0.991. The relative viability in assay [3] (first compound 0.5 µM) was 0.869; in assay [3] (first compound 1.581 µM), 0.811; in assay [3] (first compound 5 µM), 0.784; in assay [4] (first compound 0.05 µM) it was 0.322; in assay [4] (first compound 0.1581 µM), 0.291; in assay [4] (first compound 0.5 µM), 0.344. Moreover, the relative viability in assay [4] (first compound 1.581 µM) was 0.26; in assay [4] (first compound 5 µM) it was 0.279.

For NCI-H2126, the relative viability in assay [1] (first compound 0.05 µM) was found to be 0.728; in assay [1] (first compound 0.1581 µM), 0.767; in assay [1] (first compound 0.5 µM) it was 0.792; in assay [1] (first compound 1.581 µM), 0.706; in assay [1] (first compound 5 µM), 0.765; in assay [2] (first compound 0.05 µM), 0.922. Further, the relative viability in assay [2] (first compound 0.1581 µM) came to 0.863; in assay [2] (first compound 0.5 µM) it was 0.894; in assay [2] (first compound 1.581 µM), 0.821; in assay [2] (first compound 5 µM), 0.929; in assay [3] (first compound 0.05 µM) it was 0.697; in assay [3] (first compound 0.1581 µM), 0.693. The relative viability in assay [3] (first compound 0.5 µM) stood at 0.755; in assay [3] (first compound 1.581 µM), 0.662; in assay [3] (first compound 5 µM), 0.703; in assay [4] (first compound 0.05 µM), 0.598; in assay [4] (first compound 0.1581 µM), 0.56; in assay [4] (first compound 0.5 µM) it was 0.545. Also, the relative viability in assay [4] (first compound 1.581 µM) is 0.539; in assay [4] (first compound 5 µM) it was 0.619.

NCI-H2347: the relative viability was 0.987 in assay [1] (first compound 0.05 µM); 0.93 in assay [1] (first compound 0.1581 µM); 0.912 in assay [1] (first compound 0.5 µM); 1.04 in assay [1] (first compound 1.581 µM); 0.973 in assay [1] (first compound 5 µM); 0.608 in assay [2] (first compound 0.05 µM). For the same cell line, the relative viability in assay [2] (first compound 0.1581 µM) worked out at 0.538; in assay [2] (first compound 0.5 µM) it was 0.598; in assay [2] (first compound 1.581 µM), 0.532; in assay [2] (first compound 5 µM) it was 0.601; in assay [3] (first compound 0.05 µM), 0.973; in assay [3] (first compound 0.1581 µM), 0.951. The relative viability in assay [3] (first compound 0.5 µM) worked out at 0.973; in assay [3] (first compound 1.581 µM), 0.924; in assay [3] (first compound 5 µM) it was 0.972; in assay [4] (first compound 0.05 µM), 0.599; in assay [4] (first compound 0.1581 µM), 0.565; in assay [4] (first compound 0.5 µM), 0.652. Besides, the relative viability worked out at 0.566 in assay [4] (first compound 1.581 µM) and 0.65 in assay [4] (first compound 5 µM).
